In general, plant injury refers to the degree to which the test organism was suppressed or injured, in per cent.

Common to all, as to type: in vivo
One series deals with bindweed. The series is described as follows: Herbicidal activity test against upland field weeds (foliar treatment test). As to conditions: 50 g ai/ha, scale 0-100. The procedure: (§1) Experimental Example 1: Herbicidal Activity Test Against Upland Field Weeds (Foliar Treatment Test) Foliar treatment was performed as follows: After filling a square plastic pot having a surface area of 350 cm^2 with horticultural soil, seeds (10˜15 grains) or rootstocks (2 pieces) of 5 kinds of grassy weeds of sorghum, barnyard grass, quack grass, crabgrass, fall panicum, and 5 kinds of broadleaf weeds of black nightshade, indian jointvetch, velvetleaf, cocklebur, bindweed, which had been stored in a low temperature (6° C.), were sown. After growing for a certain period in greenhouse conditions (average temperature 30±5° C., light/dark=14/10 hours), test compound solutions were made by diluting with a preparation solution (including 50% acetone, 0.1% Tween-20) so that the final treatment amount of the test compounds was 50 or 75 g a.i./ha. The prepared test compound solution was used for treating foliage by hand-spraying 14 mL per pot in a fume hood. After the treatment, it was managed under the same greenhouse conditions as above, and after 14 days (after 21 days if necessary), the external symptoms and efficacy were investigated according to the scale of 0 (no control) to 100 (complete control). The results of Table 7 were obtained by evaluating weed control value to the untreated control by conducting visual assessment.

The test system of another series is crabgrass. The series is described as above. More on the design: key to Foliar treatment herbicidal activity, Crabgrass: 0 (no control); 100 (complete control). The note with it: 50 g ai/ha, scale 0-100; for pest or weed control at 50 g/ha: Digitaria sanguinalis. The protocol: as §1
In another series the test system is black nightshade. The description is as above. More on the design: key to Foliar treatment herbicidal activity, black nightshade: 0 (no control); 100 (complete control). The note with it: 50 g ai/ha, scale 0-100; for pest or weed control at 50 g/ha: Solanum nigrum. The protocol:
as §1

The subject of another series is barnyard grass. The series is described as above. As to conditions: Echinochloa crus-galli, 50 g ai/ha, scale 0-100. The protocol:
as §1

The subject of the next series is sorghum. The description is as above. Further details: key to Foliar treatment herbicidal activity, Sorghum: 0 (no control); 100 (complete control). The note with it: 50 g ai/ha, scale 0-100; for plant injury at 50 g/ha: Sorghum. The protocol:
as §1

A further series relates to velvetleaf. The description is as above. As to conditions: Abutilon theophrasti, 50 g ai/ha, scale 0-100, read-out: Foliar treatment herbicidal activity, velvet leaf. The protocol: as §1
In the next series the test system is quack grass. Described as above. More on the design: key to Foliar treatment herbicidal activity, quack grass: 0 (no control); 100 (complete control). The note with it: 50 g ai/ha, scale 0-100. The protocol: as §1
In another series the test system is corn. The series can be described thus: Phytotoxicity test for upland field crops (foliar treatment test). Further details: key: 0 (no harm); 9 (complete withered). The protocol: (§2) Experimental Example 3: Phytotoxicity Test for Upland Field Crops (Foliar Treatment Test)
(§3) Foliar treatment was performed for grown crops and weeds in a square plastic pot having a surface area of 50 cm^2 filled with horticultural soil. As a fertilizer per pot, 0.5 g of horticultural mixed fertilizer (N:P:K=17:21:17) was treated by mixing in the upper soil. Five kinds of crops such as rice, wheat, corn, soybean, and cotton were sown in each pot, and after growing for a certain period in greenhouse conditions (average temperature 30±5° C., light/dark=14/10 hours), test compound solutions were made by diluting with the diluent (33% acetone, 0.1% Tween-20) so that the final treatment amount of the test compounds was 19˜300 g a.i./ha. The prepared test compound solutions were treated using a spray booth (SB6-016) at a treatment amount of 100 ml per 1 m^2 of treatment area. The treated plants were managed under the same greenhouse conditions as above, and external symptoms and phytotoxicity were investigated 7 and 14 days after treatment (after 21 days if necessary). In the evaluation of the phytotoxicity for the crop, the grade of 0 (no harm) to 9 (complete withered) was used. The results of Table 9 were obtained by evaluating crop phytotoxicity value to the untreated control.

The test system of a further series is wheat. The series is described as above. More on the design: key: 0 (no harm); 9 (complete withered). The procedure: as §2, §3
For the next series, the system named is indian jointvetch. The series is described as follows: Herbicidal activity test against upland field weeds (foliar treatment test). More on the design: key to Foliar treatment herbicidal activity, Indian jointvetch: 0 (no control); 100 (complete control). As to conditions: 50 g ai/ha, scale 0-100. The protocol:
as §1

The test system of a further series is cocklebur. Described as above. The note with it: Xanthium strumarium, 50 g ai/ha, scale 0-100. The protocol: as §1
In another series the test system is fall panicum. The description is as above. The note with it: Panicum dichotomiflorum, 50 g ai/ha, scale 0-100. The protocol:
as §1

The mark [1] stands for this setting: 50 g ai/ha, Corn (7 days after treatment).
Where [2] appears, read: 50 g ai/ha, Corn (14 days after treatment).
Where [3] appears, read: 100 g ai/ha, Corn (7 days after treatment).
Where [4] appears, read: 100 g ai/ha, Corn (14 days after treatment).
Setting [5] is: 50 g ai/ha, Wheat (7 days after treatment).
[6] abbreviates: 50 g ai/ha, Wheat (14 days after treatment).
[7] abbreviates: 100 g ai/ha, Wheat (7 days after treatment).
Setting [8] is: 100 g ai/ha, Wheat (14 days after treatment).

As to `Cn1nnnc1NC(=O)c1ccc(C(F)(F)F)nc1COCc1nc(S(C)(=O)=O)n(C)n1` [Compound No. 2-132, N-(1-methyl-1H-tetrazol-5-yl)-2-(((1-methyl-5-(methylsulfonyl)-1H-1,2,4-triazol-3-yl)methoxy)methyl)-6-(trifluoromethyl)nicotinamide], the pest or weed control at 50 g/ha in the series with bindweed is 70%; in the series with crabgrass, 98%; with barnyard grass, 98%; in the series on velvetleaf, 98%; in the series on indian jointvetch, 20%; with cocklebur, 98%. For the same compound, in the series with fall panicum, the pest or weed control at 50 g/ha was 50%. Besides, the “Foliar treatment herbicidal activity, black nightshade” value with black nightshade stood at 100. Further, the plant injury at 50 g/ha in the series with sorghum came out at 30%. The “Foliar treatment herbicidal activity, quack grass” value with quack grass is listed as 0. In addition, the “Foliar treatment phytotoxicity, Corn” value in the series with corn (setting [1]), with corn (setting [2]), with corn (setting [3]) and with corn (setting [4]) was 0 in each case. For the same compound, the “Foliar treatment phytotoxicity, Wheat” value in the series with wheat (setting [5]) was determined as 3; in the series with wheat (setting [6]), 2; in the series on wheat (setting [7]) it was 3; with wheat (setting [8]) it was 2.

Regarding `CCCn1nnnc1NC(=O)c1ccc(C(F)(F)F)nc1COCc1nnn(CC)n1` [Compound No. 2-89, 2-(((2-ethyl-2H-tetrazol-5-yl)methoxy)methyl)-N-(1-propyl-1H-tetrazol-5-yl)-6-(trifluoromethyl)nicotinamide], the pest or weed control at 50 g/ha with bindweed turned out to be 70%; in the series on crabgrass, 60%; in the series on barnyard grass, 95%; in the series on velvetleaf it was 50%; with indian jointvetch, 40%; with cocklebur, 90%. The compound further showed a pest or weed control at 50 g/ha in the series on fall panicum of 90%. For the same compound, in the series on black nightshade, the “Foliar treatment herbicidal activity, black nightshade” value came to 100. This compound registered a plant injury at 50 g/ha with sorghum of 50%. Besides, the “Foliar treatment herbicidal activity, quack grass” value in the series on quack grass is on record as 0. Besides, the “Foliar treatment phytotoxicity, Corn” value with corn (setting [1]), in the series on corn (setting [2]), in the series on corn (setting [3]) and in the series with corn (setting [4]) was 0 throughout. Also, the “Foliar treatment phytotoxicity, Wheat” value with wheat (setting [5]), in the series on wheat (setting [6]), in the series with wheat (setting [7]) and in the series with wheat (setting [8]) was 0 throughout.

For the compound `CCn1nnc(COCc2nc(C(F)(F)F)ccc2C(=O)Nc2nnnn2C)n1` [Compound No. 2-87, 2-(((2-ethyl-2H-tetrazol-5-yl)methoxy)methyl)-N-(1-methyl-1H-tetrazol-5-yl)-6-(trifluoromethyl)nicotinamide], the pest or weed control at 50 g/ha came to 80% in the series with bindweed; 98% in the series on black nightshade; 10% with barnyard grass; 70% with velvetleaf; 20% in the series with indian jointvetch; 60% in the series on cocklebur. In the series with fall panicum, this compound had a pest or weed control at 50 g/ha of 40%. Further, the “Foliar treatment herbicidal activity, Crabgrass” value in the series with crabgrass is recorded as 0. Also, the “Foliar treatment herbicidal activity, Sorghum” value with sorghum came to 0. Also, the “Foliar treatment herbicidal activity, quack grass” value in the series on quack grass is 0. The “Foliar treatment phytotoxicity, Corn” value in the series on corn (setting [1]), in the series on corn (setting [2]), with corn (setting [3]) and in the series on corn (setting [4]) was 0 in each case. Besides, the “Foliar treatment phytotoxicity, Wheat” value with wheat (setting [5]), in the series on wheat (setting [6]), in the series on wheat (setting [7]) and in the series on wheat (setting [8]) was 0 each time.

As to `C=C(C)c1nc(COCc2nc(C(F)(F)F)ccc2C(=O)Nc2nnnn2C)nn1C` [Compound No. 2-128, N-(1-methyl-1H-tetrazol-5-yl)-2-(((1-methyl-5-(prop-1-en-2-yl)-1H-1,2,4-triazol-3-yl)methoxy)methyl)-6-(trifluoromethyl)nicotinamide], the pest or weed control at 50 g/ha stood at 40% in the series with bindweed; 60% in the series with crabgrass; 90% with black nightshade; 60% in the series on barnyard grass; 70% in the series on velvetleaf; 50% with cocklebur. In the series with fall panicum, the pest or weed control at 50 g/ha amounted to 70%. The plant injury at 50 g/ha with sorghum stood at 20%. Also, in the series with quack grass, the “Foliar treatment herbicidal activity, quack grass” value was found to be 0. Further, the “Foliar treatment phytotoxicity, Corn” value in the series with corn (setting [1]) was determined as 1; in the series with corn (setting [2]), 0; in the series with corn (setting [3]), 2; in the series on corn (setting [4]) it was 0. For the same compound, the “Foliar treatment phytotoxicity, Wheat” value in the series on wheat (setting [5]), with wheat (setting [6]), with wheat (setting [7]) and with wheat (setting [8]) was 0 in each case. Also, the “Foliar treatment herbicidal activity, Indian jointvetch” value in the series on indian jointvetch was 0.

For the compound `C=CCn1nnnc1NC(=O)c1ccc(C(F)(F)F)nc1COCc1nc(C(F)F)n(C)n1` [Compound No. 2-125, N-(1-allyl-1H-tetrazol-5-yl)-2-(((5-(difluoromethyl)-1-methyl-1H-1,2,4-triazol-3-yl)methoxy)methyl)-6-(trifluoromethyl)nicotinamide], the pest or weed control at 50 g/ha in the series with bindweed was 95%; with crabgrass, 95%; with black nightshade, 95%; in the series on barnyard grass, 60%; in the series with velvetleaf it was 40%; in the series on quack grass, 40%. For the same compound, the pest or weed control at 50 g/ha was 60% with indian jointvetch, 80% in the series on cocklebur and 90% in the series on fall panicum. In the series on sorghum, the plant injury at 50 g/ha came out at 30%. In addition, the “Foliar treatment phytotoxicity, Corn” value with corn (setting [1]) is on record as 0; in the series with corn (setting [2]) it was 0; in the series on corn (setting [3]), 1; in the series with corn (setting [4]) it was 1. Further, the “Foliar treatment phytotoxicity, Wheat” value in the series with wheat (setting [5]), in the series on wheat (setting [6]), with wheat (setting [7]) and in the series on wheat (setting [8]) was 0 throughout.

Values taken from US12495798B2, “Nicotinamide compound and herbicidal composition comprising compound” (KOREA RESEARCH INSTITUTE OF CHEMICAL TECHNOLOGY, priority 2019, dated 2025).
